Reference: US5972894A, “Peptides having potassium channel opener activity” (Cytran, Inc., priority 1997, dated 1999)
Residues, ends and D or L forms follow the SMILES beside them.

Test system: ischemic myocardium
Test: Inotropic function and arrhythmias of ischemic isolated rat heart during reperfusion
Conditions: for -dp/dtmax, % of preischemic value: by the 30th minute of reperfusion
From the text: Rat hearts were surgically isolated from white random-bred rats weighing approximately 250 g. The isolated hearts were perfused with a standard oxygenated (95% O2 and 5% CO2) Krebs-Henseleit solution in a retrograde manner (i.e., according to Langendorff and using a constant perfusate pressure of 80 cm of water). The hearts maintained a steady spontaneous contraction rate. A latex balloon catheter connected to a pressure transducer (EMT-746, Siemens-Elema, Sweden) was inserted into the left ventricle of each heart to measure the inotropic function of the heart (as described in Example 3, above). The left ventricle pressure variation curve was recorded using a polygraph.
Stage I ("adaptation regimen") consisted of a 30-minute adaptation of the respective rat hearts to the perfusion regimen. The baseline parameters for the inotropic function of each heart were recorded to establish the preischemic values for the following measured parameters: (i) the systolic pressure in the left ventricle (Psyst. mm Hg); (ii) the diastolic pressure in the left ventricle (Pdiast. mm Hg); (iii) the evolving pressure (Pev. =Psyst. -Pdist. mm Hg); (iv) the maximal rate of increase of left ventricle pressure (+dp/dtmax mm Hg/sec); and (v) the maximal rate of decrease of left ventricle pressure (-dp/dtmax mm Hg/sec). In addition, the heart rate (HR) of each heart was determined from the recordings made of the variations in the left ventricle pressure over time. In Stage II ("ischemic simulation"), ischemia was induced in each heart by shutting off the supply of the perfusion solution to the heart. Approximately 30 minutes later, Stage III ("reperfusion regimen") was initiated by restarting the reperfusion and including in the perfusate solution a test or control substance at one of the following respective concentrations: a perfusate solution of a test substance comprised 0.06, 0.6, or 6.0 mg/l GE, or 0.06, 0.6, or 6.0 mg/l VT, respectively; a perfusate solution of the positive control substance comprised 14 mg/l inosine. Inosine is a nucleoside preparation that produces a favorable inotropic effect on both normal and ischemic myocardium while inducing no rhythm disturbances or acceleration of ischemic contracture development. Woollard et al., Cardiovasc. Res. 15: 659-67 (1981). Inosine was obtained from Sigma Chemical Company, USA (Cat. Code I-4125; lot number 81H0227). The negative control substance comprised reperfusion using a standard oxygenated Krebs-Henseleit solution.
For each heart, the inotropic function of the myocardium was evaluated by measuring the parameters (i) through (v), discussed above, and the heart rate. These six parameters were recorded continuously throughout the study (i.e., beginning with Stage I and continuing through Stage III). The recordings were analyzed at the following times: (a) immediately before beginning Stage II (that is, after the 30-minute Stage I adaptation period, but before stopping perfusion); and (b) at 1, 5, 10, 20, and 30 minutes into the Stage III reperfusion.
The frequency and duration of rhythm disturbances in the 30-minute Stage III reperfusion period were determined by measuring the following parameters: (i) the number of ventricular extrasystoles; (ii) the overall duration of ventricular tachycardias (in seconds); and (iii) the overall duration of ventricular fibrillation (in seconds). Each dose of the test substance was tested on nine isolated hearts.

[1] = 6.0 mg/l, 30-minute reperfusion

NCC(=O)N[C@@H](CCC(=O)O)C(=O)O [GE, L-Glycyl-L-Glutamic acid] (H-Gly-Glu-OH)
Systolic Pressure in Ischemic Left Ventricle (% of Preischemic Values) (0.6 mg/l, 10 min reperfusion): 88.40% | Diastolic Pressure in Ischemic Left Ventricle (% of Preischemic Mean Value) (0.6 mg/l, 20 min reperfusion): 99.28% | Evolving Pressure in Ischemic Left Ventricle (% of Preischemic Mean Value) (0.6 mg/l, 20 min reperfusion): 78.42% | Heart Rate during Reperfusion (% of Preischemic Mean Value) (0.6 mg/l, 20 min reperfusion): 91.53% | Maximal Rate of Increase of Left Ventricle Pressure (% of Preischemic Mean Value) (0.6 mg/l, 20 min reperfusion): 81.12% | Maximal Rate of Left Ventricle Pressure Decrease (% of Preischemic Mean Value) (0.6 mg/l, 20 min reperfusion): 84.10% | Systolic Pressure in Ischemic Left Ventricle (% of Preischemic Values) (0.6 mg/l, 20 min reperfusion): 82.35% | Diastolic Pressure in Ischemic Left Ventricle (% of Preischemic Mean Value) (0.6 mg/l, 30 min reperfusion): 127.06% | Evolving Pressure in Ischemic Left Ventricle (% of Preischemic Mean Value) (0.6 mg/l, 30 min reperfusion): 87.22% | Heart Rate during Reperfusion (% of Preischemic Mean Value) (0.6 mg/l, 30 min reperfusion): 106.61% | Maximal Rate of Increase of Left Ventricle Pressure (% of Preischemic Mean Value) (0.6 mg/l, 30 min reperfusion): 97.62% | Maximal Rate of Left Ventricle Pressure Decrease (% of Preischemic Mean Value) (0.6 mg/l, 30 min reperfusion): 91.20% | Systolic Pressure in Ischemic Left Ventricle (% of Preischemic Values) (0.6 mg/l, 30 min reperfusion): 91.89% | restoration of +dp/dtmax (0.6 mg/l, after 30 minutes of reperfusion): nearly to its preischemic level | evolving pressure, % of preischemic level (0.6 mg/l, after about 20 or about 30 minutes of reperfusion, respectively): ≥ 85% | -dp/dtmax, % of preischemic value (0.6 mg/l): greater than 90% | Number of Ventricular Extrasystoles [1]: 174.9 | Overall Duration of Ventricular Fibrillation [1]: 79.6 s | Overall Duration of Ventricular Tachycardia [1]: 5.2 s | Diastolic Pressure in Ischemic Left Ventricle (% of Preischemic Mean Value) (6.0 mg/l, 1 min reperfusion): 53.97% | Evolving Pressure in Ischemic Left Ventricle (% of Preischemic Mean Value) (6.0 mg/l, 1 min reperfusion): 78.34% | Heart Rate during Reperfusion (% of Preischemic Mean Value) (6.0 mg/l, 1 min reperfusion): 38.86% | Maximal Rate of Increase of Left Ventricle Pressure (% of Preischemic Mean Value) (6.0 mg/l, 1 min reperfusion): 71.18% | Maximal Rate of Left Ventricle Pressure Decrease (% of Preischemic Mean Value) (6.0 mg/l, 1 min reperfusion): 59.93% | Systolic Pressure in Ischemic Left Ventricle (% of Preischemic Values) (6.0 mg/l, 1 min reperfusion): 72.87% | Diastolic Pressure in Ischemic Left Ventricle (% of Preischemic Mean Value) (6.0 mg/l, 5 min reperfusion): 65.08% | Evolving Pressure in Ischemic Left Ventricle (% of Preischemic Mean Value) (6.0 mg/l, 5 min reperfusion): 68.80% | Heart Rate during Reperfusion (% of Preischemic Mean Value) (6.0 mg/l, 5 min reperfusion): 55.65% | Maximal Rate of Increase of Left Ventricle Pressure (% of Preischemic Mean Value) (6.0 mg/l, 5 min reperfusion): 68.10% | Maximal Rate of Left Ventricle Pressure Decrease (% of Preischemic Mean Value) (6.0 mg/l, 5 min reperfusion): 70.76% | Systolic Pressure in Ischemic Left Ventricle (% of Preischemic Values) (6.0 mg/l, 5 min reperfusion): 67.10% | Diastolic Pressure in Ischemic Left Ventricle (% of Preischemic Mean Value) (6.0 mg/l, 10 min reperfusion): 103.17% | Evolving Pressure in Ischemic Left Ventricle (% of Preischemic Mean Value) (6.0 mg/l, 10 min reperfusion): 74.86% | Heart Rate during Reperfusion (% of Preischemic Mean Value) (6.0 mg/l, 10 min reperfusion): 82.12% | Maximal Rate of Increase of Left Ventricle Pressure (% of Preischemic Mean Value) (6.0 mg/l, 10 min reperfusion): 77.78% | Maximal Rate of Left Ventricle Pressure Decrease (% of Preischemic Mean Value) (6.0 mg/l, 10 min reperfusion): 93.15% | Systolic Pressure in Ischemic Left Ventricle (% of Preischemic Values) (6.0 mg/l, 10 min reperfusion): 77.71% | Diastolic Pressure in Ischemic Left Ventricle (% of Preischemic Mean Value) (6.0 mg/l, 20 min reperfusion): 83.98% | Evolving Pressure in Ischemic Left Ventricle (% of Preischemic Mean Value) (6.0 mg/l, 20 min reperfusion): 78.47% | Heart Rate during Reperfusion (% of Preischemic Mean Value) (6.0 mg/l, 20 min reperfusion): 77.12% | Maximal Rate of Increase of Left Ventricle Pressure (% of Preischemic Mean Value) (6.0 mg/l, 20 min reperfusion): 82.47% | Maximal Rate of Left Ventricle Pressure Decrease (% of Preischemic Mean Value) (6.0 mg/l, 20 min reperfusion): 95.32% | Systolic Pressure in Ischemic Left Ventricle (% of Preischemic Values) (6.0 mg/l, 20 min reperfusion): 77.71% | Diastolic Pressure in Ischemic Left Ventricle (% of Preischemic Mean Value) (6.0 mg/l, 30 min reperfusion): 132.47% | Evolving Pressure in Ischemic Left Ventricle (% of Preischemic Mean Value) (6.0 mg/l, 30 min reperfusion): 73.08% | Heart Rate during Reperfusion (% of Preischemic Mean Value) (6.0 mg/l, 30 min reperfusion): 63.29% | Maximal Rate of Increase of Left Ventricle Pressure (% of Preischemic Mean Value) (6.0 mg/l, 30 min reperfusion): 74.49% | Maximal Rate of Left Ventricle Pressure Decrease (% of Preischemic Mean Value) (6.0 mg/l, 30 min reperfusion): 93.07% | Systolic Pressure in Ischemic Left Ventricle (% of Preischemic Values) (6.0 mg/l, 30 min reperfusion): 79.73% | -dp/dtmax, % of preischemic value (6.0 mg/l): greater than 90% | arrhythmogenic effect during reperfusion (0.06-6.0 mg/l): Neither GE nor VT was found to have an arrhythmogenic effect | effect on systolic pressure drop (0.06 and 0.6 mg/l): prevented the dramatic drop in systolic pressure | chronotropic effect on heart rate (0.06 and 6.0 mg/l): moderate negative chronotropic effect | effect on diastolic pressure increase (reperfusion): prevented the increase in diastolic pressure
